Experiments:
[1] = system: Vector-only transfected 293 cells; experiment: FLIPR cell-based assay, vector-only (mock) transfected control cells; set-up: species or system human; details: vector-only transfected HEK 293 cells expressing mouse Gα15
Description: (§1) 5×10^6 Human Embryonic Kidney (HEK) 293 cells expressing the mouse Gα15 gene (from here on called '293 cells'), were transiently transfected with 7.5 μg of PFI-019 (contained within the pcDNA4HIS-max-TOPO (Invitrogen) plasmid) vector, or vector alone, using Lipofectamine Plus® reagent (Gibco BRL) as per the manufacturer's protocol. The plasmid pcDNA4HIS-max-TOPO was used as it contains elements that up-regulate the level of gene transcription over standard pcDNA3.1 vectors. 24 hrs post-transfection, the cells were detached from the flask using Trypsin/EDTA solution (LTI) and seeded into a black sided, Poly-D-lysine-treated, 96-well plate (Becton Dickinson) at 5×10^4 cells/well density. The plates were left overnight to allow the cells to adhere to the bottom of the wells. […] The FLIPR® processing involved reading the fluorescence for all samples for 2 minutes; during this time the fluorescence baseline was determined for the first 10 seconds. The desired amount of compound was then automatically transferred to the wells, and the fluorescence was continuously monitored for the remainder of the time. […]

PFI-019 = molecular target: T1, PFI-019 (Homo sapiens, UniProt Q96P68); experiment: FLIPR cell-based assay for agonist activation of PFI-019 (calcium fluorescence, Fluo3); details: PFI-019-transfected HEK 293 cells expressing mouse Gα15, fluorescence intensity versus time
T1 construct: amplify the PFI-019 coding region from human genomic DNA; N-terminal polyhistidine/Xpress leader of vector pcDNA4/HisMax-TOPO (inferred from the vector name); expressed in transfected cells; host or cells: HEK293 cells expressing the mouse Galpha15 gene, transiently transfected
Description: Fluorescence Imaging Plate Reader (FLIPR®) technology was employed as a means to detect activation of PFI-019 by agonists in a cell-based assay.
as §1

Row | Structure (SMILES) | response of vector-only transfected 293 cells (fluorescence) [1] | stimulation of PFI-019 (fluorescence response) (PFI-019)
1 | Nc1nc(Cl)nc2c1ncn2[C@@H]1O[C@H](COP(=O)([O-])OP(=O)([O-])OP(=O)([O-])[O-])[C@@H](O)[C@H]1O.[Na+].[Na+].[Na+].[Na+] [2-chloro-ATP, 2-chloroadenosine triphosphate tetrasodium] | no measurable response | stimulation of PFI-019
2 | O=c1ccn([C@@H]2O[C@H](COP(=O)(O)OP(=O)(O)OP(=O)(O)O)[C@@H](O)[C@H]2O)c(=O)[nH]1 [UTP, Uridine triphosphate] | no measurable response | stimulation of PFI-019

Source: patent publication US20040137574A1, “Novel polypeptide” (Pfizer Inc, priority 2000, published 2004)
